As a reminder, the IC50 is the concentration needed to halve the response being measured.

This assay concerns the target recombinant human mGluR2 (Homo sapiens (Human), UniProt Q14416). The experiment in a line: FLIPR Ca2+ mobilization antagonist assay in CHO dhfr- cells expressing human mGluR2 and Gα16. The assay is classed as cell-based. To be noted: antagonist response after addition of 2,500 nM glutamate, Fluo-4 AM, FLIPR384. The procedure: Antagonist constants are determined as follows. The compounds of the invention were tested in a fluorescence laser imaging plate reader based assay. This assay is a common functional assay to monitor Ca2+ mobilization in whole cells expressing recombinant receptor coupled with a promiscuous G-protein. CHO dhfr-cells stably expressing recombinant human mGluR2 and Gα16 loaded with Fluo-4 AM (Invitrogen, Carlsbad Calif.) were treated with various concentrations of antagonists of compounds and the Ca2+ response was monitored on a FLIPR384 (Molecular Devices, Sunnydale Calif.) for agonist activity. Then 2,500 nM glutamate was added and the antagonist response was monitored. The maximum calcium response at each concentration of compound for agonist or antagonist were plotted as dose responses and the curves were fitted with a four parameter logistic equation giving IC50 and Hill coefficient using the iterative non linear curve fitting software ADA (Merck & Co). Data in the following table represent activities in the antagonist assay.
(A change in cytosolic calcium serves as a functional read-out for many receptors and channels.)

Chain of recombinant human mGluR2 (Q14416 19-872): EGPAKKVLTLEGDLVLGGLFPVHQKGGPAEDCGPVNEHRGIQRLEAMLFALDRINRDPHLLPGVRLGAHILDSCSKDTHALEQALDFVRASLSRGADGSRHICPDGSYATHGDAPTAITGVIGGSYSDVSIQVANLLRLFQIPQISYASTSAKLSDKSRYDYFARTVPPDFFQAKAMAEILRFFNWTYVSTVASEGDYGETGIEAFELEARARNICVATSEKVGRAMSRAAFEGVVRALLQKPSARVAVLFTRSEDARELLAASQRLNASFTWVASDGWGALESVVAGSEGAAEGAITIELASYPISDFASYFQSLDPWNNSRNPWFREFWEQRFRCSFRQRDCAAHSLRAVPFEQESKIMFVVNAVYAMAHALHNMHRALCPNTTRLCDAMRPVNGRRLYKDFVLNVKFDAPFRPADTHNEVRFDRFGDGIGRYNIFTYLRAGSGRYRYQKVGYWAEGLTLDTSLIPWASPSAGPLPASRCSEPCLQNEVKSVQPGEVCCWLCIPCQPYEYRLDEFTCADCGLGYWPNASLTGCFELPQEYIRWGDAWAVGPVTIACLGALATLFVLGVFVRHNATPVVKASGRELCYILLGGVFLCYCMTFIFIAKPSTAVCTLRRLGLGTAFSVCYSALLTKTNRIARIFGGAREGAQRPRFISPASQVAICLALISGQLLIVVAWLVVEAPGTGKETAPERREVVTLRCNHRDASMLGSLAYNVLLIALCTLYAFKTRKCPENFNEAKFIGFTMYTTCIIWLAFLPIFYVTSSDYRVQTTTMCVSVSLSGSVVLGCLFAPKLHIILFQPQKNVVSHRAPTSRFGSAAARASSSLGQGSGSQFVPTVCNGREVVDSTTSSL

Regarding `NC(=O)c1cc(-c2ccc(F)cc2)c2c(n1)CN(C(c1cccnc1)C(F)(F)F)CC2` (racemic) [Example 3-1B, (S) and (R)-4-(4-fluorophenyl)-7-(2,2,2-trifluoro-1-(pyridin-3-yl)ethyl)-5,6,7,8-tetrahydro-1,7-naphthyridine-2-carboxamide], the IC50 came to 0.0223 µM.
`Cn1ncnc1CN1CCc2c(-c3ccc(Cl)cc3F)cc(C(N)=O)nc2C1` [Example 9-4, 4-(4-chloro-2-fluorophenyl)-7-[(1-methyl-1H-1,2,4-triazol-5-yl)methyl]-5,6,7,8-tetrahydro-1,7-naphthyridine-2-carboxamide]: the IC50 was 0.0239 µM.
As for `NC(=O)c1cc(N2CCC3(CC2)CC3)c2c(n1)CN(Cc1ccnc(C(F)(F)F)n1)CC2` [Example 12-2, 4-(6-azaspiro[2.5]oct-6-yl)-7-{[2-(trifluoromethyl)pyrimidin-4-yl]methyl}-5,6,7,8-tetrahydro-1,7-naphthyridine-2-carboxamide], the figure is 0.0131 µM; as for `NC(=O)c1cc(-c2cnc(C(F)F)s2)c2c(n1)CN(Cc1ccnc(OC(F)F)c1)CC2` [Example 2-15, 7-{[2-(difluoromethoxy)pyridin-4-yl]methyl}-4-[2-(difluoromethyl)-1,3-thiazol-5-yl]-5,6,7,8-tetrahydro-1,7-naphthyridine-2-carboxamide], 0.0452 µM; as for `COc1cnn(-c2cc(C(N)=O)nc3c2CCN(Cc2ccnc(C(F)(F)F)c2)C3)c1` [Example 5-8, 4-(4-methoxy-1H-pyrazol-1-yl)-7-{[2-(trifluoromethyl)pyridin-4-yl]methyl}-5,6,7,8-tetrahydro-1,7-naphthyridine-2-carboxamide], 0.0887 µM.
The figure for `CC1(C)CC(CN2CCc3c(-c4ccc(F)cc4F)cc(C(N)=O)nc3C2)CCO1` (single isomer, unassigned) [Example 1-11A, (R) or (S)-4-(2,4-difluorophenyl)-7-[(2,2-dimethyltetrahydro-2H-pyran-4-yl)methyl]-5,6,7,8-tetrahydro-1,7-naphthyridine-2-carboxamide] is 0.0301 µM; for `NC(=O)c1cc(-c2ccc(F)cc2)c2c(n1)CN(C(c1cccnc1)C(F)(F)F)CC2` (racemic) [Example 3-1A, (S) and (R)-4-(4-fluorophenyl)-7-(2,2,2-trifluoro-1-(pyridin-3-yl)ethyl)-5,6,7,8-tetrahydro-1,7-naphthyridine-2-carboxamide] it is 0.0212 µM.
Regarding `NC(=O)c1cc(-c2c(F)cccc2F)c2c(n1)CN(Cc1ccnc(C(F)(F)F)n1)CC2` [Example 11-1, 4-(2,6-Difluorophenyl)-7-((2-(trifluoromethyl)pyrimidin-4-yl)methyl)-5,6,7,8-tetrahydro-1,7-naphthyridine-2-carboxamide], the IC50 amounted to 0.0258 µM.
Take `NC(=O)c1cc(-c2c(F)cc(Cl)cc2F)c2c(n1)CN(Cc1ccnc(C(F)(F)F)n1)CC2` [Example 11-9, 4-(4-chloro-2,6-difluorophenyl)-7-{[2-(trifluoromethyl)pyrimidin-4-yl]methyl}-5,6,7,8-tetrahydro-1,7-naphthyridine-2-carboxamide]: the IC50 was 0.0065 µM.
As for `NC(=O)c1cc(N2CCC(F)(F)CC2)c2c(n1)CN(Cc1cc(C(F)(F)F)ncn1)CC2` [Example 12-4, 4-(4,4-difluoropiperidin-1-yl)-7-{[6-(trifluoromethyl)pyrimidin-4-yl]methyl}-5,6,7,8-tetrahydro-1,7-naphthyridine-2-carboxamide], the figure is 0.0359 µM; as for `NC(=O)c1cc(-c2ccc(Cl)cn2)c2c(n1)CN(Cc1ccnn1C(F)F)CC2` [Example 2-22, 4-(5-chloropyridin-2-yl)-7-{[1-(difluoromethyl)-1H-pyrazol-5-yl]methyl}-5,6,7,8-tetrahydro-1,7-naphthyridine-2-carboxamide], 0.0194 µM; as for `COc1cc(C(N2CCc3c(C4=CCC(C)CC4)cc(C(N)=O)nc3C2)C(F)(F)F)ccn1` (racemic) [Example 4-3B, 4-((S) and (R)-4-methylcyclohex-1-en-1-yl)-7-((S) and (R)-2,2,2-trifluoro-1-(2-methoxypyridin-4-yl)ethyl)-5,6,7,8-tetrahydro-1,7-naphthyridine-2-carboxamide], 0.0866 µM.
The figure for `Cc1cc(-c2cc(C(N)=O)nc3c2CCN(Cc2ccnc(C(F)(F)F)c2)C3)ccn1` [Example 2-14, 4-(2-methylpyridin-4-yl)-7-{[2-(trifluoromethyl)pyridin-4-yl]methyl}-5,6,7,8-tetrahydro-1,7-naphthyridine-2-carboxamide] is 0.153 µM; for `COc1cc(CN2CCc3c(-c4ccc(Cl)cc4F)cc(C(N)=O)nc3C2)ccn1` [Example 13-3, 4-(4-chloro-2-fluorophenyl)-7-[(2-methoxypyridin-4-yl)methyl]-5,6,7,8-tetrahydro-1,7-naphthyridine-2-carboxamide] it is 0.016 µM.
As for `NC(=O)c1cc(-n2cc(Cl)cn2)c2c(n1)CN(Cc1ccnc(C(F)(F)F)n1)CC2` [Example 12-3, 4-(4-chloro-1H-pyrazol-1-yl)-7-{[2-(trifluoromethyl)pyrimidin-4-yl]methyl}-5,6,7,8-tetrahydro-1,7-naphthyridine-2-carboxamide], the figure is 0.0932 µM; as for `Cc1cn(-c2cc(C(N)=O)nc3c2CCN(Cc2ccnc(C(F)(F)F)c2)C3)nc1C` [Example 5-7, 4-(3,4-dimethyl-1H-pyrazol-1-yl)-7-{[2-(trifluoromethyl)pyridin-4-yl]methyl}-5,6,7,8-tetrahydro-1,7-naphthyridine-2-carboxamide], 0.0427 µM.
On to `NC(=O)c1cc(-c2cccc(C(F)(F)F)c2)c2c(n1)CN(Cc1ccnc(C(F)(F)F)c1)CC2` [Example 2-8, 4-[3-(trifluoromethyl)phenyl]-7-{[2-(trifluoromethyl)pyridin-4-yl]methyl}-5,6,7,8-tetrahydro-1,7-naphthyridine-2-carboxamide], for which the half-maximal inhibitory concentration (IC50) came out at 0.188 µM.
The figure for `NC(=O)c1cc(-c2ccc(Cl)cc2F)c2c(n1)CN(Cc1ccnc(C(F)(F)F)n1)CC2` [Example 11-3, 4-(4-chloro-2-fluorophenyl)-7-{[2-(trifluoromethyl)pyrimidin-4-yl]methyl}-5,6,7,8-tetrahydro-1,7-naphthyridine-2-carboxamide] is 0.0072 µM.
As for `CC1(C)CC(F)(CN2CCc3c(-c4ccc(F)cc4F)cc(C(N)=O)nc3C2)CO1` (single isomer, unassigned) [Example 14-1A], the figure is 0.0174 µM; as for `CC1CCCN(c2cc(C(N)=O)nc3c2CCN(Cc2ccnc(C(F)(F)F)c2)C3)C1` (single isomer, unassigned) [Example 5-5B, (R) or (S)-4-(3-methylpiperidin-1-yl)-7-((2-(trifluoromethyl)pyridin-4-yl)methyl)-5,6,7,8-tetrahydro-1,7-naphthyridine-2-carboxamide], 0.0129 µM.
The figure for `NC(=O)c1cc(-n2cc(C(F)(F)F)cn2)c2c(n1)CN(Cc1ccnc(C(F)(F)F)c1)CC2` [Example 5-10, 4-[4-(trifluoromethyl)-1H-pyrazol-1-yl]-7-{[2-(trifluoromethyl)pyridin-4-yl]methyl}-5,6,7,8-tetrahydro-1,7-naphthyridine-2-carboxamide] is 0.032 µM; for `Cc1cn(-c2cc(C(N)=O)nc3c2CCN(Cc2ccnc(C(F)(F)F)c2)C3)cn1` [Example 5-1, 4-(4-methyl-1H-imidazol-1-yl)-7-((2-(trifluoromethyl)pyridin-4-yl)methyl)-5,6,7,8-tetrahydro-1,7-naphthyridine-2-carboxamide] it is 0.115 µM; for `CC1(C)CC(O)(CN2CCc3c(-c4ccc(F)cc4F)cc(C(N)=O)nc3C2(C)C)CO1` (single isomer, unassigned) [Example 15-1A] it is 0.0249 µM.
Regarding `Cc1cnn(C)c1CN1CCc2c(-c3ccc(F)cc3F)cc(C(N)=O)nc2C1` [Example 1-10, 4-(2,4-difluorophenyl)-7-[(1,4-dimethyl-1H-pyrazol-5-yl)methyl]-5,6,7,8-tetrahydro-1,7-naphthyridine-2-carboxamide], the IC50 is 0.0218 µM.
Turning to `CC1(CN2CCc3c(-c4ccc(Cl)cc4F)cc(C(N)=O)nc3C2)COC1` [Example 10-1, 4-(4-chloro-2-fluorophenyl)-7-((3-methyloxetan-3-yl)methyl)-5,6,7,8-tetrahydro-1,7-naphthyridine-2-carboxamide], the IC50 turned out to be 0.031 µM.
The figure for `NC(=O)c1cc(-c2ccc(F)cc2F)c2c(n1)CN(CC1CCOC(C3CCC3)C1)CC2` (single isomer, unassigned) [Example 1-14, 7-(((2S,4R) or (2R,4S)-2-cyclobutyltetrahydro-2H-pyran-4-yl)methyl)-4-(2,4-difluorophenyl)-5,6,7,8-tetrahydro-1,7-naphthyridine-2-carboxamide] is 0.0403 µM.
On to `NC(=O)c1cccc(CN2CCc3c(-c4ccc(F)cc4)cc(C(N)=O)nc3C2)c1` [Example 2-1, 7-(3-carbamoylbenzyl)-4-(4-fluorophenyl)-5,6,7,8-tetrahydro-1,7-naphthyridine-2-carboxamide], for which the IC50 turned out to be 0.0527 µM.
Consider `NC(=O)c1cc(-c2ccc(F)c(F)c2)c2c(n1)CN(Cc1ccnc(C(F)(F)F)c1)CC2` [Example 2-4, 4-(3,4-difluorophenyl)-7-{[2-(trifluoromethyl)pyridin-4-yl]methyl}-5,6,7,8-tetrahydro-1,7-naphthyridine-2-carboxamide], for which the IC50 turned out to be 0.0204 µM.
As for `NC(=O)c1cc(-c2ccc(F)cc2)c2c(n1)CN(CCc1cccnc1N)CC2` [Example 1-4, 7-(2-(2-aminopyridin-3-yl)ethyl)-4-(4-fluorophenyl)-5,6,7,8-tetrahydro-1,7-naphthyridine-2-carboxamide], the figure is 0.0835 µM.

The values are drawn from patent US10072003B2, “Tetrahydronaphthyridine derivatives as mGluR2-negative allosteric modulators, compositions, and their use” (Merck Sharp & Dohme Corp., priority 2014, dated 2018).
